Earlier results as cited in patent US20130129668A1, “Diagnosis and treatment of arthritis using epigenetics” (The Regents of the University of California, priority 2011, published 2013).

Assays:
FLS = FLS cultured in the presence of 5-azaC for 3 months

Nc1ncn([C@H]2C[C@H](O)[C@@H](CO)O2)c(=O)n1 [5-azaC, 5-aza-2′-deoxycytidine]
expression of genes implicated in RA (FLS): increased expression of several genes
autoreactivity (T cells): enhances autoreactivity
expression of T cell genes (IFNα, IL-4, CD70, LFA-1) (T cells): affects expression of many T cell genes
